In patent US9382295B2, “Cyclic depsipeptide compounds and their uses” (Cypralis Limited, priority 2012, dated 2016) one finds Ki and solubility data, which are given here for ten compounds.

Values after ≈ are worked out from the molar mass of the structure shown. Like-named read-outs stand apart in the source and are kept apart here. Numbered stars: 1 amine (or outer) side, 2 acyl side, 3 side chain; on linkers, the order of the positions; unused ones are H or OH. Square brackets hold non-standard residues; d marks the D form. Peptide text beside a SMILES is read from it. X13 = C[C@H](CCN(Cc1ccccn1)Cc1ccccn1)[C@@H](O)[C@H](C(=O)[*:2])N(C)[*:1]; X28 = C[C@H](CCN1CCC(c2ccccc2)CC1)[C@@H](O)[C@H](C(=O)[*:2])N(C)[*:1]; X22 = C[C@H](Cc1nc2ccccc2[nH]1)[C@@H](O)[C@H](C(=O)[*:2])N(C)[*:1]; X32 = CC(=O)N(CC[C@@H](C)[C@@H](O)[C@H](C(=O)[*:2])N(C)[*:1])C(C)C; X29 = C[C@H](CCN(C)Cc1ccccn1)[C@@H](O)[C@H](C(=O)[*:2])N(C)[*:1]; X9 = C[C@H](CC(=O)NCc1ccccc1)[C@@H](O)[C@H](C(=O)[*:2])N(C)[*:1]; X6 = C[C@H](CCN1CCOC[C@H]1C)[C@@H](O)[C@H](C(=O)[*:2])N(C)[*:1]; X15 = C[C@H](CCN1CCCCC1CO)[C@@H](O)[C@H](C(=O)[*:2])N(C)[*:1]; X18 = C[C@H](CCNCc1ccccc1)[C@@H](O)[C@H](C(=O)[*:2])N(C)[*:1]; X25 = CC(C)NCC[C@@H](C)[C@@H](O)[C@H](C(=O)[*:2])N(C)[*:1]; d(aThr) = C[C@@H](O)[C@@H](N)C(=O)O; NMeL = CN[C@@H](CC(C)C)C(=O)O; dNMeL = CN[C@H](CC(C)C)C(=O)O; dNMeV = CN[C@@H](C(=O)O)C(C)C; Hiv = CC(C)[C@H](O)C(=O)O; Sar = CNCC(=O)O Where only a bound is given, the exact number is not on record here.

One series has as its target T1, cyclophilin A (Cyp A) (Homo sapiens, UniProt P62937).
T1 construct: purchased Sigma C3805
The series can be described thus: Protease-free PPIase assay, cyclophilin A. Format: biochemical. Summed up:
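Protease-free cis-trans isomerisation: 2 nM recombinant human cyclophilin A with 60 μM succinimide-peptide substrate in 35 mM HEPES pH 7.8 plus DTT, at 10.0 °C, max 0.5% DMSO. Absorbance at 330 nm was fitted to first-order kinetics, background subtracted, and catalytic rates versus inhibitor concentration gave Ki.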

The next series concerns the target cyclophilin D (Cyp D) (Homo sapiens, UniProt P30405). The series can be described thus: Protease-free PPIase assay, cyclophilin D. Format: biochemical. The gist of the method: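 Cis-trans isomerization of a succinimide-peptide substrate (60 µM final) by 2 nM enzyme was followed at 330 nm in 35 mM HEPES pH 7.8 with 50 µM DTT, stirred at 10.0 °C, DMSO ≤0.5%. First-order rate constants minus background were fitted against inhibitor concentration to give Ki.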

Series [1] is described as follows: Water solubility assay (pH 7.8 buffer). Format: physicochemical. The gist of the method: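 DMSO stocks were diluted into 35 mM HEPES pH 7.8 to final 0–100 μM with 1% DMSO, in triplicate. Plates were shaken 18 h at 25 °C, then precipitation was detected as increased absorbance at 650 nm. Values give the concentration (μM) at which the compound remains in solution.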

[2] abbreviates: protease-free PPIase assay, class symbols, read-out: CypA Ki.
Setting [3] is: protease-free PPIase assay, class symbols, read-out: CypD Ki.
[4] abbreviates: 35 mM HEPES buffer, 35 mM HEPES pH 7.8, 1% DMSO, 25° C., 18 h, concentration at which compound remains in solution, read-out: Solubility.

T1 sequence (P62937 whole entry): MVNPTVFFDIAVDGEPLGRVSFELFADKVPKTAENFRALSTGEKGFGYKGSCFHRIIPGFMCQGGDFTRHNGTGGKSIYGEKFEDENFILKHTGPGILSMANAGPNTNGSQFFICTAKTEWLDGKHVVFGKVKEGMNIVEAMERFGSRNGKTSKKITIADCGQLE
Chain of cyclophilin D (Cyp D) (P30405 30-207): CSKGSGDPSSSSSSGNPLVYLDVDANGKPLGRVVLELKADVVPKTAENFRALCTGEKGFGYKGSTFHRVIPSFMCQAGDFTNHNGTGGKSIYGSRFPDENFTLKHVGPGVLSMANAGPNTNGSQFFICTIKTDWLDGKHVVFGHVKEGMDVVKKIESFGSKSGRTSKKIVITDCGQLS

The Ki is the equilibrium dissociation constant of an inhibitor or competing ligand from its target. A word on the solubility: it is the dissolved amount per volume that the medium holds. For the compound `CC(C)C[C@@H]1C(=O)N[C@H](CC(C)C)C(=O)N(C)[C@H](C(C)C)C(=O)N(C)[C@H]([C@H](O)[C@H](C)CCN2CCOC[C@H]2C)C(=O)N[C@H]([C@@H](C)O)C(=O)N(C)CC(=O)N(C)[C@@H](CC(C)C)C(=O)N[C@H](CC(C)C)C(=O)N(C)[C@H](CC(C)C)C(=O)N[C@H](C)C(=O)O[C@@H](C(C)C)C(=O)N1C` [Example 29, cyclo-[(3R,4R,5S)-4-(hydroxy)-3-methyl-5-(methylamino)-1-N—((R)-3-Methyl-morpholine)-hexanoic acid-Thr-Sar-MeLeu-Leu-MeLeu-Ala-D-Hiv-MeLeu-Leu-MeVal]] (cyclo([Hiv][dNMeL][dL][dNMeV][X6][d(aThr)][Sar][NMeL][dL][dNMeL][dA])), the Ki on cyclophilin A (Cyp A) and at cyclophilin D (Cyp D) was 25 to 100 nM in each case. This compound also returned a solubility at 18 h in series [1] (pH 7.8) of more than 100 µM.

For `CC(C)C[C@@H]1C(=O)N[C@H](CC(C)C)C(=O)N(C)[C@H](C(C)C)C(=O)N(C)[C@H]([C@H](O)[C@H](C)CCN(Cc2ccccn2)Cc2ccccn2)C(=O)N[C@H]([C@@H](C)O)C(=O)N(C)CC(=O)N(C)[C@@H](CC(C)C)C(=O)N[C@H](CC(C)C)C(=O)N(C)[C@H](CC(C)C)C(=O)N[C@H](C)C(=O)O[C@@H](C(C)C)C(=O)N1C` [Example 30, cyclo-[(3R,4R,5S)-4-(hydroxy)-3-methyl-5-(methylamino)-1-N-(bis-pyridin-2-ylmethyl-amine)-hexanoic acid-Thr-Sar-MeLeu-Leu-MeLeu-Ala-D-Hiv-MeLeu-Leu-MeVal]] (cyclo([Hiv][dNMeL][dL][dNMeV][X13][d(aThr)][Sar][NMeL][dL][dNMeL][dA])), the inhibitory constant (Ki) on cyclophilin A (Cyp A) (setting [2]) lay within 25 to 100 nM; at cyclophilin D (Cyp D) (setting [3]) it was 1 to 25 nM. The solubility at 18 h in series [1] (setting [4]) was in the range of 10 to 25 µM (≈ 14.2 to 35.5 µg/mL).

For the compound `CC(C)C[C@@H]1C(=O)N[C@H](CC(C)C)C(=O)N(C)[C@H](C(C)C)C(=O)N(C)[C@H]([C@H](O)[C@H](C)CCN(C)Cc2ccccn2)C(=O)N[C@H]([C@@H](C)O)C(=O)N(C)CC(=O)N(C)[C@@H](CC(C)C)C(=O)N[C@H](CC(C)C)C(=O)N(C)[C@H](CC(C)C)C(=O)N[C@H](C)C(=O)O[C@@H](C(C)C)C(=O)N1C` [Example 31, cyclo-[(3R,4R,5S)-4-(hydroxy)-3-methyl-5-(methylamino)-1-N-(methyl-pyridin-2-ylmethyl-amino)-hexanoic acid-Thr-Sar-MeLeu-Leu-MeLeu-Ala-D-Hiv-MeLeu-Leu-MeVal]] (cyclo([Hiv][dNMeL][dL][dNMeV][X29][d(aThr)][Sar][NMeL][dL][dNMeL][dA])), the inhibitory constant (Ki) on cyclophilin A (Cyp A) (setting [2]) was in the range of 25 to 100 nM; at cyclophilin D (Cyp D) (setting [3]), 1 to 25 nM. Also, in series [1] (setting [4]), the solubility at 18 h fell in the range of 50 to 75 µM (≈ 67.1 to 101 µg/mL).

Regarding `CC(C)C[C@@H]1C(=O)N[C@H](CC(C)C)C(=O)N(C)[C@H](C(C)C)C(=O)N(C)[C@H]([C@H](O)[C@H](C)Cc2nc3ccccc3[nH]2)C(=O)N[C@H]([C@@H](C)O)C(=O)N(C)CC(=O)N(C)[C@@H](CC(C)C)C(=O)N[C@H](CC(C)C)C(=O)N(C)[C@H](CC(C)C)C(=O)N[C@H](C)C(=O)O[C@@H](C(C)C)C(=O)N1C` [Example 33, cyclo-[(2R,3R,4S)-1-(1H-benzoimidazol-2-yl)-2-methyl-4-methylamino-3-hydroxy-pentanoic acid-Thr-Sar-MeLeu-Leu-MeLeu-Ala-D-Hiv-MeLeu-Leu-MeVal]] (cyclo([Hiv][dNMeL][dL][dNMeV][X22][d(aThr)][Sar][NMeL][dL][dNMeL][dA])), the inhibition constant Ki at cyclophilin A (Cyp A) and on cyclophilin D (Cyp D) was 1 to 25 nM each time. Moreover, the solubility at 18 h in series [1] (pH 7.8) was 25 to 50 µM (≈ 33.1 to 66.2 µg/mL).

As to `CC(C)C[C@@H]1C(=O)N[C@H](CC(C)C)C(=O)N(C)[C@H](C(C)C)C(=O)N(C)[C@H]([C@H](O)[C@H](C)CCN2CCC(c3ccccc3)CC2)C(=O)N[C@H]([C@@H](C)O)C(=O)N(C)CC(=O)N(C)[C@@H](CC(C)C)C(=O)N[C@H](CC(C)C)C(=O)N(C)[C@H](CC(C)C)C(=O)N[C@H](C)C(=O)O[C@@H](C(C)C)C(=O)N1C` [Example 34, cyclo-[(3R,4R,5S)-4-(hydroxy)-3-methyl-5-(methylamino)-1-(4-phenyl-1-piperidyl)-hexanoic acid-Thr-Sar-MeLeu-Leu-MeLeu-Ala-D-Hiv-MeLeu-Leu-MeVal]] (cyclo([Hiv][dNMeL][dL][dNMeV][X28][d(aThr)][Sar][NMeL][dL][dNMeL][dA])), the Ki on cyclophilin A (Cyp A) (setting [2]) and at cyclophilin D (Cyp D) (setting [3]) was 1 to 25 nM each time. In series [1] (setting [4]), the solubility at 18 h is 10 to 25 µM (≈ 13.8 to 34.5 µg/mL).

Take `CC(C)C[C@@H]1C(=O)N[C@H](CC(C)C)C(=O)N(C)[C@H](C(C)C)C(=O)N(C)[C@H]([C@H](O)[C@H](C)CCNCc2ccccc2)C(=O)N[C@H]([C@@H](C)O)C(=O)N(C)CC(=O)N(C)[C@@H](CC(C)C)C(=O)N[C@H](CC(C)C)C(=O)N(C)[C@H](CC(C)C)C(=O)N[C@H](C)C(=O)O[C@@H](C(C)C)C(=O)N1C` [Example 35, cyclo-[(3R,4R,5S)-1-benzylamino-3-methyl-5-methylamino-4-hydroxy-hexanoic acid-Thr-Sar-MeLeu-Leu-MeLeu-Ala-D-Hiv-MeLeu-Leu-MeVal]] (cyclo([Hiv][dNMeL][dL][dNMeV][X18][d(aThr)][Sar][NMeL][dL][dNMeL][dA])): the Ki at cyclophilin A (Cyp A) was 25 to 100 nM; at cyclophilin D (Cyp D), 1 to 25 nM. This compound displayed a solubility at 18 h in series [1] (pH 7.8) of 25 to 50 µM (≈ 33.2 to 66.3 µg/mL).

For `CC(C)C[C@@H]1C(=O)N[C@H](CC(C)C)C(=O)N(C)[C@H](C(C)C)C(=O)N(C)[C@H]([C@H](O)[C@H](C)CC(=O)NCc2ccccc2)C(=O)N[C@H]([C@@H](C)O)C(=O)N(C)CC(=O)N(C)[C@@H](CC(C)C)C(=O)N[C@H](CC(C)C)C(=O)N(C)[C@H](CC(C)C)C(=O)N[C@H](C)C(=O)O[C@@H](C(C)C)C(=O)N1C` [Example 36, cyclo-[(3R,4R,5S)-1-benzylcarbamoyl-3-methyl-5-methylamino-4-hydroxy-pentanoic acid-Thr-Sar-MeLeu-Leu-MeLeu-Ala-D-Hiv-MeLeu-Leu-MeVal]] (cyclo([Hiv][dNMeL][dL][dNMeV][X9][d(aThr)][Sar][NMeL][dL][dNMeL][dA])), the Ki at cyclophilin A (Cyp A) and on cyclophilin D (Cyp D) was 1 to 25 nM throughout. In series [1] (pH 7.8), the solubility at 18 h is 25 to 50 µM (≈ 33.5 to 67 µg/mL).

For `CC(C)C[C@@H]1C(=O)N[C@H](CC(C)C)C(=O)N(C)[C@H](C(C)C)C(=O)N(C)[C@H]([C@H](O)[C@H](C)CCNC(C)C)C(=O)N[C@H]([C@@H](C)O)C(=O)N(C)CC(=O)N(C)[C@@H](CC(C)C)C(=O)N[C@H](CC(C)C)C(=O)N(C)[C@H](CC(C)C)C(=O)N[C@H](C)C(=O)O[C@@H](C(C)C)C(=O)N1C` [Example 37, cyclo-[(3R,4R,5S)-4-hydroxy-1-isopropylamino-3-methyl-5-methylamino-hexanoic acid-Thr-Sar-MeLeu-Leu-MeLeu-Ala-D-Hiv-MeLeu-Leu-MeVal]] (cyclo([Hiv][dNMeL][dL][dNMeV][X25][d(aThr)][Sar][NMeL][dL][dNMeL][dA])), the inhibition constant Ki at cyclophilin A (Cyp A) was in the range of 25 to 100 nM; at cyclophilin D (Cyp D) it was 1 to 25 nM. In series [1] (pH 7.8), this compound displayed a solubility at 18 h of more than 100 µM.

As to `CC(=O)N(CC[C@@H](C)[C@@H](O)[C@@H]1C(=O)N[C@H]([C@@H](C)O)C(=O)N(C)CC(=O)N(C)[C@@H](CC(C)C)C(=O)N[C@H](CC(C)C)C(=O)N(C)[C@H](CC(C)C)C(=O)N[C@H](C)C(=O)O[C@@H](C(C)C)C(=O)N(C)[C@H](CC(C)C)C(=O)N[C@H](CC(C)C)C(=O)N(C)[C@H](C(C)C)C(=O)N1C)C(C)C` [Example 38, cyclo-[(3R,4R,5S)-1-(acetyl-isopropyl-amino)-4-hydroxy-3-methyl-5-methylamino-hexanoic acid-Thr-Sar-MeLeu-Leu-MeLeu-Ala-D-Hiv-MeLeu-Leu-MeVal]] (cyclo([Hiv][dNMeL][dL][dNMeV][X32][d(aThr)][Sar][NMeL][dL][dNMeL][dA])), the Ki is 25 to 100 nM on cyclophilin A (Cyp A) and 1 to 25 nM at cyclophilin D (Cyp D). The solubility at 18 h in series [1] (pH 7.8) fell in the range of 50 to 75 µM (≈ 66 to 99.1 µg/mL).

Regarding `CC(C)C[C@@H]1C(=O)N[C@H](CC(C)C)C(=O)N(C)[C@H](C(C)C)C(=O)N(C)[C@H]([C@H](O)[C@H](C)CCN2CCCCC2CO)C(=O)N[C@H]([C@@H](C)O)C(=O)N(C)CC(=O)N(C)[C@@H](CC(C)C)C(=O)N[C@H](CC(C)C)C(=O)N(C)[C@H](CC(C)C)C(=O)N[C@H](C)C(=O)O[C@@H](C(C)C)C(=O)N1C` (stereo partly drawn) [Example 39, cyclo-[(2R,3R,4S)-4-hydroxy-1-(2-hydroxymethyl-piperidin-1-yl)-3-methyl-5-methylamino-hexanoic acid-Thr-Sar-MeLeu-Leu-MeLeu-Ala-D-Hiv-MeLeu-Leu-MeVal]] (cyclo([Hiv][dNMeL][dL][dNMeV][X15][d(aThr)][Sar][NMeL][dL][dNMeL][dA])), the Ki on cyclophilin A (Cyp A) is 100 to 300 nM; at cyclophilin D (Cyp D) it was 25 to 100 nM. The solubility at 18 h in series [1] (pH 7.8) was more than 100 µM.
